# Measurements published in patent US8735388B2, “Heterocyclic compounds with affinity to muscarinic receptors” (Abbvie B. V. A., priority 2007, dated 2014).
# How the values were obtained:
# [1] = target: T1, Muscarine M4 (GPCR-A-MA-ACH M4) (Homo sapiens, UniProt P08173); conditions: read-out: Ligand Kd; cited from earlier work
# T1 construct: expressed in transfected cells; host or cells: CHO cells
# T1 sequence (P08173 1-479): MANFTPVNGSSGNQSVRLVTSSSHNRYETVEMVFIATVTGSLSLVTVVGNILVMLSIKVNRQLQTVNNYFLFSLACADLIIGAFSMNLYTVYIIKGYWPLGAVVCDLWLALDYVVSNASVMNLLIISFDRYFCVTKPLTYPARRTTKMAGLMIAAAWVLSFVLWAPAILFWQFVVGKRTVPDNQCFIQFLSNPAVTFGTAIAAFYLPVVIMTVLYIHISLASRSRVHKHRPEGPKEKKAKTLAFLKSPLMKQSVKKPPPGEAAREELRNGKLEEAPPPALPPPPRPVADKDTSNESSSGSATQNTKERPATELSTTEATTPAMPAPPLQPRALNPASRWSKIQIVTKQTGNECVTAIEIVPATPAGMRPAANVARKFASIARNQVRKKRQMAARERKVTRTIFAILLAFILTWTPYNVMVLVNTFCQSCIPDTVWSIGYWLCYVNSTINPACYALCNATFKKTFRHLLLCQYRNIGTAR
# [2] = target: T2, Muscarine M2 (GPCR-A-MA-ACH M2) (Homo sapiens, UniProt P08172); conditions: read-out: Ligand Kd; cited from earlier work
# T2 construct: expressed in transfected cells; host or cells: CHO cells
# T2 sequence (P08172 1-466): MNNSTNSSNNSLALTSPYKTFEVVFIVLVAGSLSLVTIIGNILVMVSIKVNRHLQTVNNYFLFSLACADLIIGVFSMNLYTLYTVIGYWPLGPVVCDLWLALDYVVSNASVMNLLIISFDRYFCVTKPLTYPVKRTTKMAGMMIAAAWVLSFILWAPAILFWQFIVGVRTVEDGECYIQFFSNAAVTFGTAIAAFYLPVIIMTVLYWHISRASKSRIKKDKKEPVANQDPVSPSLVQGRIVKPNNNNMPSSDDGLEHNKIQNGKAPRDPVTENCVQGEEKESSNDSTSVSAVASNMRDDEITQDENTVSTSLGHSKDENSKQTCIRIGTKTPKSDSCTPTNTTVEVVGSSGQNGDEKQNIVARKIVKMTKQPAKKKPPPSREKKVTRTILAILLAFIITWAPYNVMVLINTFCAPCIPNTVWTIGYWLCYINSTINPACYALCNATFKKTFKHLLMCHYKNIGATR
# [3] = target: T3, Muscarine M3 (GPCR-A-MA-ACH M3) (Cavia porcellus, UniProt H0W1Z3); experiment: Muscarine M3 functional assay, isolated organ (ileum), agonist and antagonist mode; set-up: species or system Guinea Pig
# T3 construct: from tissue; host or cells: guinea pig ileum
# [4] = test system: Muscarine M1 (GPCR-A-MA-ACH M1); experiment: Muscarine M1 functional assay, isolated organ (vas deferens, field-stimulated); conditions: assay characteristic; Muscarine M1, rabbit vas deferens, inhibition of twitch contraction; read-out: Reference Agonist Ligand EC50
# Experimental: Compounds were dissolved in DMSO (10 mM) and diluted in assay buffer to test concentration. Prime testing was at 1 μM; for actives in antagonist mode (PI, percent inhibition with respect to reference agonist and blank>30%) as well as actives in agonist mode (PS, percent stimulation with respect to reference agonist and blank>30%) testing was continued at lower concentrations in 10-fold dilutions: 0.1 μM, 0.01 μM, etc.
# The tissues were exposed to a maximal concentration of the respective reference agonist to verify responsiveness and to obtain a control response. Following extensive washings and recovery of the initial state, the tissues were exposed to the test compounds or the same agonist. […]
# The parameters measured were the maximum change in the amplitude of the electrically-evoked contractions (M1 and M2 receptor assays) or in tension (M3 receptor assay) induced by each compound concentration. The results are expressed as a percent of the control agonist-induced response. The EC50 values of the reference agonists (concentration producing a half-maximum response) and IC50 values of the reference antagonists (concentration producing a half-maximum inhibition of the agonist-induced response) were calculated by […] analysis of their concentration-response curves.
# [5] = Stability in human liver homogenate (metabolic stability in vitro); assay type: in vitro ADME; conditions: read-out: t ½
# From the text: DÖRJE, F., WESS, J., LAMBRECHT, G., TACKE, R., […], E. and BRANN, M. R. (1991) Antagonist binding profiles of five cloned human muscarinic receptor subtypes. J. Pharmacol. Exp. Ther., 256: 727-733. • […], M. H. (1990) Rat hippocampal muscarinic autoreceptors are similar to the M2 (cardiac) subtype: comparison with hippocampal M1, atrial M2 and ileal M3 receptors. Brit. J. Pharmacol., 99: 753-761. • PERALTA, E. G., ASHKENAZI, A., WINSLOW, J. W., SMITH, D. H., […], J. and CAPON, D. J. (1987) Distinct primary structures, ligand-binding properties and tissue-specific expression of four human muscarinic acetylcholine receptors. EMBO. J., 6: 3923-3929. Determination of Metabolic Stability (In Vitro)
# Method used according to procedures described by DI, L. et al., Journal of Biomolecular Screening, Vol. 8, No. 4, 453-462 (2003).
# [6] = in words, background section; cited from earlier work
# T3 sequence (H0W1Z3 1-590): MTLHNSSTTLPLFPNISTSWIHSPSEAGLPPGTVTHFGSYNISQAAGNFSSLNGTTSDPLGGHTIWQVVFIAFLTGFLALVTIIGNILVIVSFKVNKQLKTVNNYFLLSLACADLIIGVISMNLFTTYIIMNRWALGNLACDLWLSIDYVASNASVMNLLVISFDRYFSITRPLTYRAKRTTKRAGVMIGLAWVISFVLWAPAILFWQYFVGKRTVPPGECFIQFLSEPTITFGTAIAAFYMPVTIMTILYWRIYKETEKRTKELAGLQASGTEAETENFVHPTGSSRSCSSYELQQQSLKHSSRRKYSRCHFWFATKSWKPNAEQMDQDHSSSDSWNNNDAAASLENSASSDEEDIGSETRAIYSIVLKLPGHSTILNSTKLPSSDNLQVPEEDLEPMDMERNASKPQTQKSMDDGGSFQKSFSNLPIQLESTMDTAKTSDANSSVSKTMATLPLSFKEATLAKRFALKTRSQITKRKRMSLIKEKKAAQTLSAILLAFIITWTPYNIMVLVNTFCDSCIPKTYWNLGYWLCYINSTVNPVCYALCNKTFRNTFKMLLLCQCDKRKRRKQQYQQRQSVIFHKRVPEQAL
compound,measurement,setting,value
3H-Oxotremorine,Kd,[1],4.5 nM
"CCCN(CCC)CC1CCCCN1CCNC(=O)N1c2ccccc2C(=O)Nc2cccnc21 (stereo not drawn) [Compound 3H-AFDX384, 3H-AFDX384]",Kd,[2],4.3 nM
"C[N+](C)(C)CC#CCOC(=O)Nc1cccc(Cl)c1.[Cl-] [McN-A-343, reference compound]",Cell funct. Musc. M3 Agonism pEC50,[3],6.9
same,EC50,[4],250 nM
"CCCCCCOc1nsnc1C1=CCCN(C)C1 [Xanomeline, reference compound]",half-life,[5],17 min
same,(in vitro) metabolic stability,[6],relatively low
